Read-outs that look alike come from different tables or passages of the source.

This test addresses T1, human TRPM8 (Homo sapiens, UniProt Q7Z2W7).
T1 construct: expressed in transfected cells; host or cells: HEK-293/TRPM8 exon1 K3 cells
Briefly: Patch-clamp assay on TRPM8 channels (HEK-293/TRPM8 cells, menthol-evoked currents). It is filed as cell-based. As for the experimental part:
Patch clamp experiments for compounds 4, 5 and 9 were done as described. HEK-293/TRPM8 exon 1 cells were seeded 3 or 4 days before experiment at a concentration of 4 and 2.5 million cells, respectively, onto a T225 flask. Before each experiment, cells were washed two times with D-PBS without Ca^2+/Mg^2+ (Euroclone, Milan, Italy) and trypsinized with trypsin−EDTA (Sigma-Aldrich; diluted 1/10). Cells were suspended in 25 mL of EX-CELL ACF CHO medium (Sigma-Aldrich, Milan, Italy), 0.625 mL of HEPES (Lonza, Walkersville, USA), 0.25 mL of 100 × penicillin/streptomycin (Lonza, Walkersville, USA), 0.1 mL of soybean trypsin inhibitor 10 mg/mL (Sigma-Aldrich), and placed on the automated patch-clamp platform (QPatch 16X, Sophion Bioscience, Ballerup, Denmark). A stock solution of L-Menthol (1 M, 100% DMSO), used as reference agonist, was freshly prepared. A diluted stock of 300 mM was prepared from the 1 M stock in 100% DMSO, and a final dilution was obtained using the extracellular solution to give a working concentration of 300 μM (1:1000, 0.1% final DMSO concentration). Stock solutions of the testing compounds (10 mM; 100% DMSO; stored at − 20 °C) were freshly prepared, as well. Further dilution of these stock solutions to a final concentration of 300 μM was performed from the 10 mM stock in 100% DMSO, and the working dilutions were performed just before the experiments using the extracellular solution containing 300 μM menthol. The highest concentration tested was 300 nM, with serial dilutions (1:10). DMSO was balanced to keep it constant throughout all the solutions in the same experiment (0.2% final DMSO concentration). Standard whole-cell voltage clamp experiments were performed at room temperature using the multihole technology. For the voltage clamp experiments on human TRPM8, data were sampled at 2 kHz. After establishment of the seal and the passage in the whole cell configuration, the cells were subjected to a voltage ramp (20 ms step at − 60 mV; 100 ms ramp − 60/ + 100 mV; 20 ms step at + 100 mV; return to − 60 mV) every 4 s. The antagonistic effect on human TRPM8 current of target compounds was evaluated after application of the agonist (menthol, 300 μM), in the absence or presence of increasing concentrations of the compound under investigation. Outward current evoked by the voltage ramp, measured in the step at + 100 mV were measured. The intracellular solution contained (mM) 135 CsCl, 10 BAPTA, 10 HEPES, 4 Na2ATP (pH 7.2 with CsOH). The extracellular solution contained (mM) 145 NaCl, 4 KCl, 1 MgCl2, 2 CaCl2, 10 HEPES, 10 glucose (pH 7.4 with NaOH). TRPM8 modulation by final compounds 3 and 6 has been previously determined by patch clamp measurements[29],[30].

T1 sequence (Q7Z2W7 whole entry): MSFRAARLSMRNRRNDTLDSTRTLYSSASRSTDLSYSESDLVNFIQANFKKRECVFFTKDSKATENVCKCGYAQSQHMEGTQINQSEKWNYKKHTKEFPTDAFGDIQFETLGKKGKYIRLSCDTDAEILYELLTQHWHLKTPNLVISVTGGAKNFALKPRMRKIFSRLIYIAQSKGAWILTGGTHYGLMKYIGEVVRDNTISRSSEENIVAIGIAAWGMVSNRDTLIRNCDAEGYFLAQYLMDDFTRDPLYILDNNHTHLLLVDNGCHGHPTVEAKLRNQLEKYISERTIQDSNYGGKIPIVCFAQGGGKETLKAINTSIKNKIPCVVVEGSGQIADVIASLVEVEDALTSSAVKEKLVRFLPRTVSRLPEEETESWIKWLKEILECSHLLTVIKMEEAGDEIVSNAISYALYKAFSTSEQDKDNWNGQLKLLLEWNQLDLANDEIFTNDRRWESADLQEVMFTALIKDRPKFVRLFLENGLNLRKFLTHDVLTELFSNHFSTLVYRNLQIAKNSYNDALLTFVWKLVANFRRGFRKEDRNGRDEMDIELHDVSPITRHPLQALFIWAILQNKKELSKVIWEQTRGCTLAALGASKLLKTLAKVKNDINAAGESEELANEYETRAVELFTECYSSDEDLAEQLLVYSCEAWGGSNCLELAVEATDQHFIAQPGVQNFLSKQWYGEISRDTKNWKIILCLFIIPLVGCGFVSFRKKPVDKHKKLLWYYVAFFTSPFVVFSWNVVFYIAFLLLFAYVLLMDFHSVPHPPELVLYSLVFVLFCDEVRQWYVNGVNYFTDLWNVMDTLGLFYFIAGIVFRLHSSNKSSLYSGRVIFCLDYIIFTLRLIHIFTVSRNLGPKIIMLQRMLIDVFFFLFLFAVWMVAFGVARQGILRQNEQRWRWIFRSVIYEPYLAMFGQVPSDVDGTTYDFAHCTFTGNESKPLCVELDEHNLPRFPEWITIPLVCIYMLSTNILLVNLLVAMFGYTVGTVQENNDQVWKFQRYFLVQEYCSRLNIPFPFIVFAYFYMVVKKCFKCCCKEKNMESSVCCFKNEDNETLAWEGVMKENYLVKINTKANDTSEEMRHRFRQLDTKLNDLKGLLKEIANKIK

Regarding `c1ccc(COc2ccc3[nH]cc(CCNCc4ccc(Oc5ccccc5)cc4)c3c2)cc1` [Compound 4], the IC50 (commonly the midpoint of a concentration-inhibition curve) is 204 ± 15 nM (300 µM menthol-evoked currents, read-out: Potency IC50) and 204 to 340 nM (TRPM8 antagonist, menthol-evoked currents, one range for both compounds, read-out: IC50). Moreover, the “inhibitory effect on menthol-evoked TRPM8 currents” value (dependence on concentration) is recorded as “concentration-dependent”.

(Values after article PMC8636514, “Therapeutic potential of TRPM8 antagonists in prostate cancer” (Scientific Reports, 2021).)
